Experimental findings from patent publication US9669034B2, “4-aryl-N-phenyl-1,3,5-triazin-2-amines containing a sulfoximine group” (BAYER INTELLECTUAL PROPERTY GMBH, priority 2011, dated 2017) are described below.

The structures appear in SMILES notation.

In assay [1] the target is CDK2/CycE (Homo sapiens (Human), UniProt P24941). The assay can be described thus: CDK2/CycE kinase assay (TR-FRET). It counts as biochemical. As to conditions: Method 2. An excerpt:
2. CDK2/CycE Kinase Assay:
CDK2/CycE—inhibitory activity of compounds of the present invention was quantified employing the CDK2/CycE TR-FRET assay as described in the following paragraphs:
Recombinant fusion proteins of GST and human CDK2 and of GST and human CycE, expressed in insect cells (Sf9) and purified by Glutathion-Sepharose affinity chromatography, were purchased from ProQinase GmbH (Freiburg, Germany). As substrate for the kinase reaction biotinylated peptide biotin-Ttds-[…]
For orientation: TR-FRET usually uses a lanthanide donor and a delayed reading to cut background.

The target in assay [2] is CDK9/CycT1 (Homo sapiens (Human), UniProt P50750). The assay can be described thus: CDK9/CycT1 kinase assay (TR-FRET). It counts as biochemical. As to conditions: Method 1. An excerpt:
1. CDK9/CycT1 Kinase Assay:
CDK9/CycT1—inhibitory activity of compounds of the present invention was quantified employing the CDK9/CycT1 TR-FRET assay as described in the following paragraphs:
Recombinant full-length His-tagged human CDK9 and CycT1, expressed in insect cells and purified by Ni-NTA affinity chromatography, were purchased from Invitrogen (Cat. No PV4131). As substrate for the kinase reaction biotinylated peptide biotin-Ttds-[…]

Setting [3] is: unit cell empty (table: nM or μM).

Sequence of CDK9/CycT1 (P50750 whole entry): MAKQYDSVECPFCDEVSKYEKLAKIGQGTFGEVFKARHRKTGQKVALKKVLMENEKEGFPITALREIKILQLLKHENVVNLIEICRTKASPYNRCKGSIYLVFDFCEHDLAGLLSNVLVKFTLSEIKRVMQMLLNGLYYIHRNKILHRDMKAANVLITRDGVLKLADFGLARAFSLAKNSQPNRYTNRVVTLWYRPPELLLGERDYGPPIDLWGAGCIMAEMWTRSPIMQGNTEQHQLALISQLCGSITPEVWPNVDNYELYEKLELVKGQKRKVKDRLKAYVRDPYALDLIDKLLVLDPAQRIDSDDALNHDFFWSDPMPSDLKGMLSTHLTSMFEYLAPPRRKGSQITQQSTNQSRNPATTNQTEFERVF
Sequence of CDK9/CycT1 (O60563 whole entry partner): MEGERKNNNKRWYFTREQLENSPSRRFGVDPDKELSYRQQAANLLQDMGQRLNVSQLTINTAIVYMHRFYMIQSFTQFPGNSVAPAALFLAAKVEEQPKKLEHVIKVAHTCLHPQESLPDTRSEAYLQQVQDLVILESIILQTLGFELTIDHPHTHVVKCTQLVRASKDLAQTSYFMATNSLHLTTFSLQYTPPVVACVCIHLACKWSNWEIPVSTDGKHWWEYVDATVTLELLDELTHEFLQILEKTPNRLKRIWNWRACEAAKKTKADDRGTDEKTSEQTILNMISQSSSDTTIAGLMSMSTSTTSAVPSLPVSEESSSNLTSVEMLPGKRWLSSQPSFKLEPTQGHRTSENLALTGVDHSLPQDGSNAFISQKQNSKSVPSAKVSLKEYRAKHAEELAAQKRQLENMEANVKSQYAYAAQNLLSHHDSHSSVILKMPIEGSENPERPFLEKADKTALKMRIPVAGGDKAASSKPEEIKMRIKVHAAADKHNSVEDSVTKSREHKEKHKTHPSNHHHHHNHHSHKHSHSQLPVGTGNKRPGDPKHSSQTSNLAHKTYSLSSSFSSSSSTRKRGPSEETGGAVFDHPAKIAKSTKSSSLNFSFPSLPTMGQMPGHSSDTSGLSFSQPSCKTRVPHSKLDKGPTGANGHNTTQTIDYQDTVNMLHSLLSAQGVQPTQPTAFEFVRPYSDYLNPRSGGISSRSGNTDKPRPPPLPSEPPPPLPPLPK

For the molecule `CCS(=N)(=O)Cc1cccc(Nc2ncnc(-c3ccc(F)cc3OC)n2)c1` (single isomer, unassigned) [Example 110, N-{3-[(S-ethylsulfonimidoyl)methyl]phenyl}-4-(4-fluoro-2-methoxyphenyl)-1,3,5-triazin-2-amine], the figures for the half-maximal inhibitory concentration (IC50) in assay [1] (setting [3]) and in assay [2] (setting [3]) were 1100 nM and 9 nM, respectively.
As to `CCOC(=O)N=S(C)(=O)Cc1cccc(Nc2ncnc(-c3cc(F)ccc3OC)n2)c1` (racemic) [Example 20, (rac)-Ethyl [(3-{[4-(5-fluoro-2-methoxyphenyl)-1,3,5-triazin-2-yl]amino}benzyl)(methyl)oxido-λ^6-sulfanylidene]carbamate], the IC50 (in general, the concentration needed to halve the response being measured) was 2000 nM in assay [1] and 22 nM in assay [2].
On the same counts, the results for `CS(=N)(=O)Cc1cccc(Nc2ncnc(-c3ccc(F)cc3OCCC(F)(F)F)n2)c1` (racemic) [Example 65, (rac)-4-[4-Fluoro-2-(3,3,3-trifluoropropoxy)phenyl]-N-{3-[(S-methylsulfonimidoyl)methyl]phenyl}-1,3,5-triazin-2-amine] are 6000 nM and 79 nM.
For `CCOC(=O)N=S(C)(=O)Cc1cccc(Nc2ncnc(-c3cccc(Cl)c3OC)n2)c1` (racemic) [Example 45, (rac)-Ethyl [(3-{[4-(3-chloro-2-methoxyphenyl)-1,3,5-triazin-2-yl]amino}benzyl)(methyl)oxido-λ^6-sulfanylidene]carbamate], the results for the IC50 in assay [1] and in assay [2] were 9000 nM and 820 nM, respectively.
On the same counts, the results for `CS(=N)(=O)Cc1cccc(Nc2ncnc(-c3ccccc3OCc3ccc(Cl)c(Cl)c3)n2)c1` (racemic) [Example 61, (rac)-4-{2-[(3,4-Dichlorobenzyl)oxy]phenyl}-N-{3-[(S-methylsulfonimidoyl)methyl]phenyl}-1,3,5-triazin-2-amine] are 1200 nM and 15 nM.
`COc1ccccc1-c1ncnc(Nc2cccc(CS(C)(=N)=O)c2)n1` (single isomer, unassigned) [Example 27, 4-(2-Methoxyphenyl)-N-{3-[(S-methylsulfonimidoyl)methyl]phenyl}-1,3,5-triazin-2-amine]: the IC50 in assay [1] is 7600 nM; in assay [2], 100 nM.
With `CCOC(=O)N=S(C)(=O)Cc1cccc(Nc2ncnc(-c3ccc(Cl)cc3OC)n2)c1` (racemic) [Example 11, (rac)-Ethyl [(3-{[4-(4-chloro-2-methoxyphenyl)-1,3,5-triazin-2-yl]amino}benzyl)(methyl)oxido-λ^6-sulfanylidene]carbamate], the 50% inhibitory concentration (IC50) turned out to be 5500 nM in assay [1] and 23 nM in assay [2].
Regarding `CCOC(=O)N=S(C)(=O)Cc1cccc(Nc2ncnc(-c3cc(F)ccc3OCC3CCOCC3)n2)c1` (racemic) [Example 46, (rac)-Ethyl {[3-({4-[5-fluoro-2-(tetrahydro-2H-pyran-4-ylmethoxy)phenyl]-1,3,5-triazin-2-yl}amino)benzyl](methyl)oxido-λ^6-sulfanylidene}carbamate], the results for the IC50 in assay [1] and in assay [2] were 11000 nM and 120 nM, respectively.
Take `COc1ccc(F)cc1-c1ncnc(Nc2cccc(CS(C)(=N)=O)c2)n1` (racemic) [Example 21, (rac)-4-(5-Fluoro-2-methoxyphenyl)-N-{3-[(S-methylsulfonimidoyl)methyl]phenyl}-1,3,5-triazin-2-amine]: the IC50 in assay [1] was 3500 nM; in assay [2], 56 nM.
With `CS(=N)(=O)Cc1cccc(Nc2ncnc(-c3ccc(F)cc3OCc3ccccc3)n2)c1` (racemic) [Example 6, (rac)-4-[2-(Benzyloxy)-4-fluorophenyl]-N-{3-[(S-methylsulfonimidoyl)methyl]phenyl}-1,3,5-triazin-2-amine], the results for the IC50 in assay [1] and in assay [2] were 220 nM and 3 nM, respectively.
Turning to `CCS(=N)(=O)Cc1cccc(Nc2ncnc(-c3ccc(F)cc3OC)n2)c1` (single isomer, unassigned) [Example 109, N-{3-[(S-ethylsulfonimidoyl)methyl]phenyl}-4-(4-fluoro-2-methoxyphenyl)-1,3,5-triazin-2-amine], the IC50 came to 780 nM in assay [1] (setting [3]) and 24 nM in assay [2] (setting [3]).
